# Assay results from US9138434B2, “Octahydrothienoquinoline derivative, pharmaceutical composition comprising derivative, and use of these” (KISSEI PHARMACEUTICAL CO., LTD., priority 2011, dated 2015).
# Read-outs that look alike come from different tables or passages of the source.
# Tests used:
# [1] = target: T1, human dopamine D2 receptor (Homo sapiens, UniProt P14416); assay: Stimulating activities on human dopamine D2 receptor, [35S]GTPγS binding to hD2R#7 cell membrane homogenates; type: biochemical
# T1 construct: accorded to it of human dopamine D2 receptor (NM1-000795) registered on NCBI completely; expressed in transfected cells; membrane homogenates
# Procedure: Identification Test of Stimulating Activities on Human Dopamine D2 Receptor
# 4) Preparation of Membrane Homogenates from hD2R#7 Cells
# (2) Preparation of Membrane Homogenates from hD2R#7 Cells
# The cells, which were grown to confluence in 150 mm dishes (IWAKI), were harvested with isotonic buffer (50 mM Tris (Sigma), 2 mM ethylenediamine-tetraacetic acid (Invitrogen), and 125 mM sodium chloride (Wako Pure Chemicals), pH 7.4) and centrifuged at 1880×g and 4° C. for 10 minutes, and the cell pellets were then suspended in isotonic buffer. After being subjected to one cycle of freezing and thawing, the cells were centrifuged at 1880×g and 4° C. for 10 minutes, and the cell pellets were suspended in isotonic buffer. The cells were centrifuged at 1880×g and 4° C. for 10 minutes, and the cell pellets were suspended in isotonic buffer and homogenate buffer (10 mM sodium bicarbonate (Nacalai) and 5 mM ethylenediamine-tetraacetic acid, pH 7.5). The volume ratio of isotonic-to-homogenate buffer was 2. The cells were sonicated and centrifuged at 1880×g and 4° C. for 10 minutes, and the supernatants were ultracentrifuged at 80000×g and 4° C. for 30 minutes. The final cell pellets were suspended in homogenate buffer containing protease inhibitor cocktail (Nacalai) and stored at −80° C. until use. The protein concentration was determined using BCA Protein Assay Kit (Pierce) in accordance with the manufacturer's instructions.
# 5) Determination of Stimulating Activities of Human Dopamine D2 Receptor
# The stimulating activities of human dopamine D2 receptor was determined by measuring the binding potential of [^35S]-guanosine 5′-[gamma-thio]triphosphate ([^35S]GTPγS, PerkinElmer) according to the method described by Newman-Tancredi A. et al. (Naunyn-Schmiedeberg's Arch Pharmacol, 1999, vol. 359, pp. 447-453) with a minor modification. Test compounds and dopamine hydrochloride (Fluka) as positive control were dissolved in dimethyl sulfoxide (CARLBIOCHEM), resulting in 30 mM. The both compounds were diluted with assay buffer (50 mM Tris, 100 mM sodium chloride, 5 mM magnesium chloride (Nacalai), 1 mM ethylenediamine-tetraacetic acid, 1 mM dithiothreitol (Wako Pure Chemicals), 10 μM guanosine diphosphate (Wako Pure Chemicals) and 0.5% bovine serum albumin (Sigma), pH 7.4) to a final concentration of 100 pM (only test compounds), 1 nM, 10 nM, 100 nM, 1 μM, 10 μM and 100 μM (only dopamine hydrochloride). The above membrane homogenates and [^35S]GTPγS were diluted with assay buffer to a final concentration of 0.06 mg/mL and 0.6 nM, respectively. The serial diluted compounds (50 μL), the diluted membrane homogenates (50 μL) and the diluted [^35S]GTPγS (50 μL) were mixed on multi-screen 96-well plate (Millipore) and shaken lightly at room temperature for 60 minutes. The reaction was terminated by vacuum filtration with three times washes of ice-cold wash buffer (50 mM Tris, 100 mM sodium chloride, 5 mM magnesium chloride, and 1 mM ethylenediamine-tetraacetic acid, pH 7.4). After drying the bottoms of the plate at 60° C., MicroScinti-40 (PerkinElmer) (30 μL) was added in the plate. The tops of the plate were sealed by TopSeal-A (PerkinElmer), and the radioactivity was determined in a TopCount NXT (registered mark) (PerkinElmer) after shaking lightly for 5-10 minutes. The data was analyzed by nonlinear regression and sigmoidal dose-response curve fitting using GraphPad PRISM 4.0 (GraphPad Software), and values of EC50 (concentration of the compound producing half the maximal effect of the compound) were calculated. The data was presented as mean value (n=2).
# [2] = target: T2, human serotonin 5-HT2B receptor (Homo sapiens, UniProt P41595); assay: Stimulating activities on human serotonin 5-HT2B receptor, intracellular calcium in forced expression HEK293 cells; type: cell-based; settings: intracellular calcium (Fluo-4), HEK293 cells transiently expressing human 5-HT2B receptor; mean, n=2; read-out: EC50
# T2 construct: expressed in transfected cells; host or cells: HEK293, transient transfection (Lipofectamine 2000)
# Procedure: Identification Test of Stimulating Activities on Human Serotonin 5-HT2B Receptor
# The PCR was performed using forward primer depicted as sequence ID No. 4, reverse primer depicted as sequence ID No. 5 and KOD-Plus-Ver.2 (TOYOBO) as template of human brain hippocampus cDNA (Clontech). The PCR product was inserted into a plasmid (pcDNA3.1/V5-His-Topo (registered mark)). The PCR product-inserted plasmid was transformed in E. coli (One Shot TOP10 Chemically Competent). That E. coli was incubated in LB agar medium contained 50 μg/mL ampicillin for a day. A selected colony was incubated in LB medium contained 50 μg/mL ampicillin and PCR product-inserted plasmid was purified with QIAprep Spin Miniprep Kit (QIAGEN).
# Mostly confluent HEK293 cells were washed with PBS, followed by exfoliation with 0.05% trypsin-EDTA and the cells were suspended in D-MEM liquid medium (phenol red-free, low glucose, pyruvic acid were contained) containing fetal bovine serum (final concentration: 10%) and GlutaMax (registered mark)I (final concentration: 2 mM). The suspension was scattered at 5×10^4 cells/100 L/well on poly-D-lysine-coated 96-well microplate (BD BioCoat (registered mark)). The scattered cells were cultured in 5% CO2 incubator at 37° C. Human serotonin 5-HT2B receptor expression plasmid was transfected in that cells according to the procedure seeing below.
# Human serotonin 5-HT2B receptor expression plasmid and Lipofectamine (registered mark) 2000 (Invitrogen) were diluted to 0.008 g/L and 0.016 g/L each other with OPTI-MEM (registered mark)I Reduced-Serum Medium and incubated at room temperature. After incubation, the human serotonin 5-HT2B receptor exoression plasmid-diluted liquid and Lipofectamine (registered mark) 2000-diluted liquid were mixed at an equal volume and incubated at room temperature to form a complex. The complex was dispensed at 50 μL/well on the cells prepared above. The cells were incubated in 5% CO2 incubator at 37° C. for 2 days. After incubation, the cells were used as human serotonin 5-HT2B receptor forced expression cells for measurement of intracellular calcium concentration.
# 3) Determination of Stimulating Activities of Human Serotonin 5-HT2B Receptor
# The stimulating activities of human serotonin 5-HT2B receptor was determined by measuring of intracellular calcium concentration. The 30 mM dimethyl sulfoxide (DMSO) solution contained test compounds or serotonin hydrochloride (Sigma) as positive control, was diluted with assay buffer ((HBSS), 20 mM HEPES, 1.3 mM calcium chloride, 0.5 mM magnesium chloride and 0.4 mM magnesium sulfate were contained, pH7.4) to appropriate concentration.
# The forced expression cells were washed with assay buffer, and 100 μL/well of fluorescent calcium indicator (Fluo-4 NW Calcium Assay Kit) was added and incubated in 5% CO2 incubator at 37° C. After incubation, 50 μL/well of each test compound was added, and the concentration of intracellular calcium was measured as fluorescent signal with FlexStation (registered mark) II (Molecular Devices). The data was analyzed by nonlinear regression and sigmoidal dose-response curve fitting using GraphPad PRISM 4.0, and values of EC50 (concentration of the compound producing half the maximal effect of the compound) were calculated. The data was presented as mean value (n=2).
# [3] = [35S]GTPγS binding, membrane homogenates of HEK293 cells stably expressing human D2 receptor, mean, n=2, read-out: EC50
# T1 sequence (P14416 whole entry): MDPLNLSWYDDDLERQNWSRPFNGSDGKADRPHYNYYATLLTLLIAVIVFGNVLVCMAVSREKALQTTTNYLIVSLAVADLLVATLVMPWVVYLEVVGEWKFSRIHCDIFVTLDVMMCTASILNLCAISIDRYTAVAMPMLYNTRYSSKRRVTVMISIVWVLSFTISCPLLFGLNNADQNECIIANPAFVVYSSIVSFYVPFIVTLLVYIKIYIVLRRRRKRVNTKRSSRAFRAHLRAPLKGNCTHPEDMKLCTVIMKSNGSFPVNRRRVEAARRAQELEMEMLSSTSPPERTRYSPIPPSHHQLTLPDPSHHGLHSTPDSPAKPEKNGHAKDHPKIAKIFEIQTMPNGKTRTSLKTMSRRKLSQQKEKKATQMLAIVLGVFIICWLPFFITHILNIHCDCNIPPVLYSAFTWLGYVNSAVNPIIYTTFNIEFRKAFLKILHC
# T2 sequence (P41595 whole entry): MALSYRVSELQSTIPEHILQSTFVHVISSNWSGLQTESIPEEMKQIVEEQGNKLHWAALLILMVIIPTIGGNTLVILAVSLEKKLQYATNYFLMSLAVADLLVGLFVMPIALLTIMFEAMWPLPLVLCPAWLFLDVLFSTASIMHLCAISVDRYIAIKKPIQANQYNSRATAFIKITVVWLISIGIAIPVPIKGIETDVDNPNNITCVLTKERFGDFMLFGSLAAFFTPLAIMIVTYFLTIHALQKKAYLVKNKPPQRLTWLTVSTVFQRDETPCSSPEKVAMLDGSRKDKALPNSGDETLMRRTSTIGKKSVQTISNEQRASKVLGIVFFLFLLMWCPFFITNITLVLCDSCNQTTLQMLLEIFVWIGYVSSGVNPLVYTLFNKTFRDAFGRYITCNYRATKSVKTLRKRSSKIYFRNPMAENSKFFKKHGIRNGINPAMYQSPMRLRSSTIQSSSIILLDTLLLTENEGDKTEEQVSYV
"EC50 [1, 3]",EC50 [2],Compound,EC50 [1]
4 nM,> 10000 nM,"CN(C)CCNC(=O)N(CCc1ccccc1)C(=O)[C@@H]1C[C@@H]2Cc3c(sc(N)c3C#N)C[C@H]2N(C)C1 (relative stereo) [1-30, 1-{[(4aR*,6R*,8aR*)-2-amino-3-cyano-8-methyl-4H,4aH,5H,6H,7H,8H,8aH,9H-thieno[3,2-g]quinolin-6-yl]carbonyl}-3-[2-(dimethylamino)ethyl]-1-(2-phenylethyl)urea]",–
9 nM,–,"CN(C)CCNC(=O)N(CC(C)(C)C)C(=O)[C@@H]1C[C@@H]2Cc3c(sc(N)c3C#N)C[C@H]2N(C)C1 (relative stereo) [1-56, 1-{[(4aR*,6R*,8aR*)-2-amino-3-cyano-8-methyl-4H,4aH,5H,6H,7H,8H,8aH,9H-thieno[3,2-g]quinolin-6-yl]carbonyl}-3-[2-(dimethylamino)ethyl]-1-(2,2-di-methylpropyl)urea]",–
13 nM,> 10000 nM,"CCCN(C(=O)NCC(C)(C)N(C)C)C(=O)[C@@H]1C[C@@H]2Cc3c(sc(N)c3C#N)C[C@H]2N(C)C1 (relative stereo) [1-82, 1-{[(4aR*,6R*,8aR*)-2-amino-3-cyano-8-methyl-4H,4aH,5H,6H,7H,8H,8aH,9H-thieno[3,2-g]quinolin-6-yl]carbonyl}-3-[2-(dimethylamino)-2-methylpropyl]-1-propylurea]",–
–,> 10000 nM,"CCN(C(=O)NCC(CC)(CC)N(C)C)C(=O)[C@@H]1C[C@@H]2Cc3c(sc(N)c3C#N)C[C@H]2N(C)C1 (relative stereo) [1-84, 1-{[(4aR*,6R*,8aR*)-2-amino-3-cyano-8-methyl-4H,4aH,5H,6H,7H,8H,8aH,9H-thieno[3,2-g]quinolin-6-yl]carbonyl}-3-[2-(dimethylamino)-2-ethylbutyl]-1-ethylurea]",–
10 nM,–,"CN(C)CCNC(=O)N(CC1CC1)C(=O)[C@@H]1C[C@@H]2Cc3c(sc(N)c3C#N)C[C@H]2N(C)C1 (single isomer, unassigned) [1-36]",–
11 nM,> 10000 nM,"CCNC(=O)N(CCN1CCCC1)C(=O)[C@@H]1C[C@@H]2Cc3c(sc(N)c3C#N)C[C@H]2N(C)C1 [1-6, 1-{[(4aR,6R,8aR)-2-amino-3-cyano-8-methyl-4H,4aH,5H,6H,7H,8H,8aH,9H-thieno[3,2-g]quinolin-6-yl]carbonyl}-3-ethyl-1-[2-(pyrrolidin-1-yl)ethyl]urea]",–
7 nM,–,CCCN1C[C@H](C(=O)N(CCCN(C)C)C(=O)NCC)C[C@@H]2Cc3c(sc(N)c3C#N)C[C@H]21 [1-13],–
21 nM,–,CCN(C(=O)NCCCOC)C(=O)[C@@H]1C[C@@H]2Cc3c(sc(N)c3C#N)C[C@H]2N(C)C1 [1-21],–
–,–,CCN(C(=O)NCc1ccccn1)C(=O)[C@@H]1C[C@@H]2Cc3c(sc(N)c3C#N)C[C@H]2N(C)C1 [1-25],15 nM
6 nM,–,CN(C)CCNC(=O)N(Cc1cccs1)C(=O)[C@@H]1C[C@@H]2Cc3c(sc(N)c3C#N)C[C@H]2N(C)C1 [1-37],–
17 nM,–,C=CCN(C(=O)NCCN(C)C)C(=O)[C@@H]1C[C@@H]2Cc3c(sc(N)c3C#N)C[C@H]2N(C)C1 [1-39],–
13 nM,–,CCN(C(=O)NCCc1ccccc1CCN(C)C)C(=O)[C@@H]1C[C@@H]2Cc3c(sc(N)c3C#N)C[C@H]2N(C)C1 [1-44],–
11 nM,–,CN(C)CCNC(=O)N(CCCC(F)(F)F)C(=O)[C@@H]1C[C@@H]2Cc3c(sc(N)c3C#N)C[C@H]2N(C)C1 [1-61],–
14 nM,–,CCCCN(C(=O)NCCN1CCN(C)CC1)C(=O)[C@@H]1C[C@@H]2Cc3c(sc(N)c3C#N)C[C@H]2N(C)C1 [1-66],–
12 nM,–,COCCN(C(=O)NCCN1CCCCC1)C(=O)[C@@H]1C[C@@H]2Cc3c(sc(N)c3C#N)C[C@H]2N(C)C1 [1-68],–
6 nM,> 10000 nM,CCCN(C(=O)NCC(C)(C)CN(C)C)C(=O)[C@@H]1C[C@@H]2Cc3c(sc(N)c3C#N)C[C@H]2N(C)C1 [1-83],–
13 nM,–,CCN(C(=O)NCCN(C)c1ccccc1)C(=O)[C@@H]1C[C@@H]2Cc3c(sc(N)c3C#N)C[C@H]2N(C)C1 [1-86],–
22 nM,–,CCCCN(C(=O)NCCN(C)CCO)C(=O)[C@@H]1C[C@@H]2Cc3c(sc(N)c3C#N)C[C@H]2N(C)C1 [1-87],–
24 nM,–,CCCCN(C(=O)NCCN(CC)CC)C(=O)[C@H]1CN[C@@H]2Cc3sc(N)c(C#N)c3C[C@H]2C1 [1-88],–
8 nM,> 10000 nM,CCCN(C(=O)NC1CN(C)C1)C(=O)[C@@H]1C[C@@H]2Cc3c(sc(N)c3C#N)C[C@H]2N(C)C1 [1-99],–
4 nM,> 10000 nM,"CN(C)CC(C)(C)CNC(=O)N(CC1CC1)C(=O)[C@@H]1C[C@@H]2Cc3c(sc(N)c3C#N)C[C@H]2N(C)C1 [1-104, 1-{[(4aR,6R,8aR)-2-amino-3-cyano-8-methyl-4H,4aH,5H,6H,7H,8H,8aH,9H-thieno[3,2-g]quinolin-6-yl]carbonyl}-1-(cyclopropylmethyl)-3-[3-(dimethylamino)-2,2-dimethyl-propyl]urea]",–
–,287 nM,"CCCN1C[C@H](CSC)C[C@@H]2c3cccc4[nH]cc(c34)C[C@H]21 [Pergolide, pergolide, reference compound]",–

Compound,"EC50 [1, 3]",EC50 [2],EC50 [1]
CCCN(C(=O)NCCNC)C(=O)[C@@H]1C[C@@H]2Cc3c(sc(N)c3C#N)C[C@H]2N(C)C1 [1-2],12 nM,> 10000 nM,–
CCN(C(=O)NC)C(=O)[C@@H]1C[C@@H]2Cc3c(sc(N)c3C#N)C[C@H]2N(C)C1 [1-23],8 nM,> 10000 nM,–
